Laboratory results reported in patent EP0830813B1, “Fungicidal compositions” (Aventis CropScience UK Limited, priority 1996, dated 1998).

Tests used:
Assay type in all cases: in vivo
[1] = system: Leptosphaeria nodorum and Septoria tritici mixed infection; assay: Control of Leptosphaeria nodorum and Septoria tritici mixed infection on sprayed winter wheat, assessed 23 days after application; conditions: spray, average of 4 replicates
Experimental: Winter wheat was sprayed with cyprodinil, PBO and mixtures of the two. Thirty three days after application the winter wheat was assessed for levels of Leptosphaeria nodorum compared with untreated cereal, whereby the level of control could be calculated. Results (average of 4 replicates) are shown below. In a similar experiment, levels of Leptosphaeria nodorum and Septoria tritici mixed infection were assessed 23 days after application. Results (average of 4 replicates) are shown below.

Elysiphe graminis = assay: Control of Elysiphe graminis infection on sprayed winter wheat, assessed after 14 days; conditions: spray, average of 3 replicates
Experimental: Winter wheat was sprayed with cyprodinil, PBO and mixtures of the two. Thirty three days after application the winter wheat was assessed for levels of Leptosphaeria nodorum compared with untreated cereal, whereby the level of control could be calculated. Results (average of 4 replicates) are shown below. In a similar experiment levels of […] graminis infection were determined after 14 days. Results (average of 3 replicates) are shown below.

Erysiphe graminis = assay: Control of Erysiphe graminis infection on sprayed winter wheat, assessed after 30 days; conditions: spray, average of 4 replicates
Experimental: Winter wheat was sprayed with cyprodinil, PBO and mixtures of the two. Thirty three days after application the winter wheat was assessed for levels of Leptosphaeria nodorum compared with untreated cereal, whereby the level of control could be calculated. Results (average of 4 replicates) are shown below. In a similar experiment levels of Erysiphe graminis infection were determined after 30 days. Results (average of 4 replicates) are shown below.

Leptosphaeria nodorum = assay: Control of Leptosphaeria nodorum on sprayed winter wheat, assessed 33 days after application; conditions: spray, vs untreated, average of 4 replicates
Experimental: Winter wheat was sprayed with cyprodinil, PBO and mixtures of the two. Thirty three days after application the winter wheat was assessed for levels of Leptosphaeria nodorum compared with untreated cereal, whereby the level of control could be calculated. Results (average of 4 replicates) are shown below.

CCCCOCCOCCOCc1cc2c(cc1CCC)OCO2 [PBO, piperonyl butoxide]
% control ([1]; 300 g ai / ha): 0.0% | % control (Elysiphe graminis; 300 g ai/ha): 0.0% | % control (Erysiphe graminis; 300 g ai / ha): 0.0% | % control (Leptosphaeria nodorum; 300 g ai / ha): 0.0%

Cc1cc(C2CC2)nc(Nc2ccccc2)n1 [cyprodinil]
% control ([1]; 600 g ai / ha): 0.0% | % control (Elysiphe graminis; 150 g ai/ha): 35% | % control (Elysiphe graminis; 300 g ai/ha): 67% | % control (Elysiphe graminis; 600 g ai/ha): 98% | % control (Erysiphe graminis; 600 g ai / ha): 34.4% | % control (Leptosphaeria nodorum; 600 g ai / ha): 23.1%
